Reference: ChEMBL document CHEMBL5543140 (J Med Chem, 2024)
Active and inactive are the calls of the source. The calls are words filed in the database; no cut-off is given here.

What was measured:
[1] = Lipophilicity, logP of the compound; format: physicochemical; details: octanol/water
[2] = target: T1, 5-hydroxytryptamine receptor 2A (Homo sapiens, UniProt P28223); assay: Agonist activity at human 5-HT2A receptor expressed in HEK293 cells assessed as IP2 production measured after 30 mins incubation by HTRF assay; format: functional, cell-based
[3] = target: T2, 5-hydroxytryptamine receptor 1A (Homo sapiens) (UniProt P08908); assay: Agonist activity at human 5-HT1A receptor expressed in HEK293T cells co-transfected with 22F-Glosensor assessed as inhibition of cAMP production measured after 30 mins incubation by Microbeta2Micro-plate counter analysis; format: functional, cell-based; details: filed as agonist
T2 sequence (whole entry): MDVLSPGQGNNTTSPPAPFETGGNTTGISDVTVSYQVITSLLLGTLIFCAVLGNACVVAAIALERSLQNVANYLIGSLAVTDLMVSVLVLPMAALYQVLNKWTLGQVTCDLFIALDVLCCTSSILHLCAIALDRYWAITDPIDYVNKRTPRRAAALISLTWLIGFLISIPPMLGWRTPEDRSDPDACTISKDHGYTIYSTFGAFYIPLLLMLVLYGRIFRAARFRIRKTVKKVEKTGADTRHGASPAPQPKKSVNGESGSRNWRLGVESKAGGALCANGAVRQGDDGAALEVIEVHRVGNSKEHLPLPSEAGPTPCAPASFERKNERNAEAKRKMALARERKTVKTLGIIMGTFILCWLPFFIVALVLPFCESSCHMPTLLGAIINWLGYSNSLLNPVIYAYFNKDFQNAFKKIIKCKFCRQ

Mus musculus [4] = assay: Locomotor activity in C57BL/6J mouse assessed as distance traveled at 1 mg/kg, ip measured for 15 to 25 mins; format: functional; details: time 15-25 min
Mus musculus [5] = assay: Psychedelic effect in C57BL/6J mouse assessed as induction of 5-HT2A receptor dependent maximal head-twitch responses by visual observation at 1 mg/kg, sc at 15 to 220 mins; format: functional, organism-based; details: time lower 15.0 min, time upper […]
[6] = target: 5-hydroxytryptamine receptor 2C (Homo sapiens) (UniProt P28335); assay: Agonist activity at human 5-HT2C receptor expressed in HEK293 cells assessed as maximal IP2 production measured after 30 mins incubation by HTRF assay relative to control; format: functional, cell-based; details: filed as agonist
[7] = target: Muscarinic acetylcholine receptor M1 (Homo sapiens) (UniProt P11229); assay: Displacement of [3H]-Pirenzepine from human muscarinic M1 expressed in CHO-K1 cells membrane at 10 uM incubated for 60 mins by microbeta liquid scintillation counting analysis; format: cell membranes; details: Cell membrane
[8] = target: Adrenergic receptor alpha-2 (Rattus norvegicus) (UniProt P22086+P19328+P22909); assay: Displacement of [3H]RX 821002 from rat cerebral cortex alpha2 adrenergic receptor assessed as remaining activity at 10 uM after 60 mins by scintillation counting method relative to control
[9] = target: T3, 5-hydroxytryptamine receptor 2B (Homo sapiens, UniProt P41595); assay: Agonist activity at human 5-HT2B receptor expressed in CHO cells assessed as maximal IP2 production measured after 30 mins incubation by HTRF assay relative to control; format: functional, cell-based
[10] = target: Muscarinic acetylcholine receptor M4 (Homo sapiens) (UniProt P08173); assay: Displacement of [3H]4-DAMP from human recombinant muscarinic M4 receptor expressed in HEK293 cells at 10 uM incubated for 60 mins by radiometric based scintillation counter assay relative to control; format: cell-based
[11] = target: Muscarinic acetylcholine receptor M5 (Homo sapiens) (UniProt P08912); assay: Displacement of [3H]4-DAMP from human recombinant muscarinic M5 receptor expressed in HEK293 cells at 10 uM incubated for 60 mins by radiometric based scintillation counter assay relative to control; format: cell-based
[12] = target: Voltage-dependent L-type calcium channel subunit alpha-1C (Homo sapiens, UniProt Q13936); assay: Binding affinity to human Calcium channel L-type (verapamil site) at 10 uM measured after 180 mins by [3H]D888-Radiometric assay relative to control
[13] = target: T1, 5-hydroxytryptamine receptor 2A; assay: Displacement of [3H]LSD from human 5-HT2A receptor expressed in HEK293 cell membrane incubated for 90 mins by microbeta liquid scintillation counting method; format: cell membranes
[14] = target: T1, 5-hydroxytryptamine receptor 2A; assay: Agonist activity at human 5-HT2A receptor expressed in HEK293 cells assessed as maximal IP2 production measured after 30 mins incubation by HTRF assay relative to control; format: functional, cell-based; details: filed as agonist
[15] = target: T4, 5-hydroxytryptamine receptor 2C (Homo sapiens, UniProt P28335); assay: Displacement of [3H]LSD from human 5-HT2C receptor expressed in HEK293 cell membrane incubated for 90 mins by microbeta liquid scintillation counting method; format: cell membranes
T4 sequence (P28335 whole entry): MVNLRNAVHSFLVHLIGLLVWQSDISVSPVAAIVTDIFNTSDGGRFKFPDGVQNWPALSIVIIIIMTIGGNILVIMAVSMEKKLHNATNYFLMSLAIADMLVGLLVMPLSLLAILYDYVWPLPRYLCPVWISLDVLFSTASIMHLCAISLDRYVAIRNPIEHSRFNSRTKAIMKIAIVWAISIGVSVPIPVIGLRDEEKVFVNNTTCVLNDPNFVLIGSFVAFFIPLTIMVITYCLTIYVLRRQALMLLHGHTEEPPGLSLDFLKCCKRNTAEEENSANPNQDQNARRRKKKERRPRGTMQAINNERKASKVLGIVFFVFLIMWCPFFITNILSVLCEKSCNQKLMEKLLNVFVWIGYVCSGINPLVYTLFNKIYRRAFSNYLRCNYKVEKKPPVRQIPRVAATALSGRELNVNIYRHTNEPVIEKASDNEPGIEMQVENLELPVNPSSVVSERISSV

Mus musculus [16] = assay: Psychedelic effect in C57BL/6J mouse assessed as number of head-twitch responses by visual observation at 3 mg/kg, po measured for 3 mins at 5 to 25 min; format: functional; details: 0.05 h
[17] = target: T3, 5-hydroxytryptamine receptor 2B; assay: Displacement of [3H]LSD from human 5-HT2B receptor expressed in HEK293 cell membrane incubated for 90 mins by microbeta liquid scintillation counting method; format: cell membranes
Mus musculus [18] = assay: Psychedelic effect in C57BL/6J mouse assessed as number of head-twitch responses by visual observation at 3 mg/kg, po measured for 3 mins at 160 to 170 min; format: functional; details: 0.05 h
[19] = Chemical stability of the compound in water measured for 5 days; format: physicochemical; details: buffer, 120 h; time 5 day
[20] = Chemical stability of the compound in buffer solution at pH 1 to 6.8 measured for 5 days; format: physicochemical; details: pH 1, 120 h, time 5 day
[21] = Metabolic stability of the compound assessed as recombinant human MAO-mediated oxidative metabolism by measuring compound remaining measured upto 120 mins by LC-MS/MS analysis; format: ADME; details: 2 h
[22] = Metabolic stability in Sprague-Dawley rat liver microsomes assessed as deuteration effect measured upto 120 mins by LC-MS/MS analysis; format: ADME, Microsome; details: 2 h
Mus musculus [23] = assay: Psychedelic effect in C57BL/6J mouse assessed as number of head-twitch responses by visual observation at 3 to 30 mg/kg, po; format: functional, organism-based; details: dose 3-30 mg/kg

T1 sequence (P28223 whole entry): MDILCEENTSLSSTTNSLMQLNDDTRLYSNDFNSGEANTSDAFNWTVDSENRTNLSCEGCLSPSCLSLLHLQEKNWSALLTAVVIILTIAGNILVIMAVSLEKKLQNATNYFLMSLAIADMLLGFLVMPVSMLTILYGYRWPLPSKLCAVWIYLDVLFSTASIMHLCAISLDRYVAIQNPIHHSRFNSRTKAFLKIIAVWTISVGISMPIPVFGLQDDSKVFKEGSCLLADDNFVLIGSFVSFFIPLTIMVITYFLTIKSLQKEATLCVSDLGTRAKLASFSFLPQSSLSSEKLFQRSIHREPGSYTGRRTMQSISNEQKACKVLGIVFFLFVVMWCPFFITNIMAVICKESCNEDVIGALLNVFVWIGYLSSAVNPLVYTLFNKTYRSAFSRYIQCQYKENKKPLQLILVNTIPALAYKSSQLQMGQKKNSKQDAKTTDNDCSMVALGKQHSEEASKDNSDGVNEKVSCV
T3 sequence (P41595 whole entry): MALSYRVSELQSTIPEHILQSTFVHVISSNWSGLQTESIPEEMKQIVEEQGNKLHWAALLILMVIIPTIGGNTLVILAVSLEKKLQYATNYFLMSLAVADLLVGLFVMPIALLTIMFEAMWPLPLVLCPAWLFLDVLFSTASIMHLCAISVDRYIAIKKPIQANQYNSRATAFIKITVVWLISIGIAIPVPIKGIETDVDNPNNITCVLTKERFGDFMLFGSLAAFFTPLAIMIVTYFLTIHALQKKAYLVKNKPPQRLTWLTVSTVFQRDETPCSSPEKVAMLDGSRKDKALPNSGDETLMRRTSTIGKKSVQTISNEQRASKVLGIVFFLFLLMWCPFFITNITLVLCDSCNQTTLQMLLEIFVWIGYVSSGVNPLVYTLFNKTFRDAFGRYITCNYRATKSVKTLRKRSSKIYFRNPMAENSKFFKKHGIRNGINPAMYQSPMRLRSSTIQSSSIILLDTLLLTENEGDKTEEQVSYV
Chain of Muscarinic acetylcholine receptor M1 (Homo sapiens) (P11229 whole entry): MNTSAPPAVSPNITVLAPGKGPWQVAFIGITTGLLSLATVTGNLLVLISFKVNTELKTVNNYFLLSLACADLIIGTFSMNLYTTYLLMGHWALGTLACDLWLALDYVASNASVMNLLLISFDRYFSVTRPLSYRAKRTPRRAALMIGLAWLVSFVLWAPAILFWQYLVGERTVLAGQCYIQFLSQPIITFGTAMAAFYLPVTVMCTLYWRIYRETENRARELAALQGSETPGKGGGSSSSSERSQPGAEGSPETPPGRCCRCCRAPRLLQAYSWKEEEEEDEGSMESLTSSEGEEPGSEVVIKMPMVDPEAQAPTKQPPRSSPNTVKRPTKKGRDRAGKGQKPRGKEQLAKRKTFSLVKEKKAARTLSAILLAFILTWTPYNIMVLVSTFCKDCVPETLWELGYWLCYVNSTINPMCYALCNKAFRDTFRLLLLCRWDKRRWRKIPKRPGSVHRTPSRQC
Chain of Muscarinic acetylcholine receptor M5 (Homo sapiens) (P08912 whole entry): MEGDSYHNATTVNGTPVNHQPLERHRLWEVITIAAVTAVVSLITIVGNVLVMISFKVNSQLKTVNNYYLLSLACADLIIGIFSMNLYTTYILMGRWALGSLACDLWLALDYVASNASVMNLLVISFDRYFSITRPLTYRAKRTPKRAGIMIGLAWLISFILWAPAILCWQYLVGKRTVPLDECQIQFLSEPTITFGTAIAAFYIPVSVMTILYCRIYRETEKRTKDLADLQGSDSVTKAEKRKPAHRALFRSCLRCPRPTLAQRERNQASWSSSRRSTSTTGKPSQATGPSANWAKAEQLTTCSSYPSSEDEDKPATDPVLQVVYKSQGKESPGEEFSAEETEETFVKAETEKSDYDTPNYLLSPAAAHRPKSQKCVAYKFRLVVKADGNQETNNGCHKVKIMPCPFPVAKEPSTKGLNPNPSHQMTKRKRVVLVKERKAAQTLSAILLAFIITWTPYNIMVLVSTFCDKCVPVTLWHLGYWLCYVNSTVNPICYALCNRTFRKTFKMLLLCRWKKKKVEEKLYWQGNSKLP
Chain of Voltage-dependent L-type calcium channel subunit alpha-1C (Q13936 whole entry): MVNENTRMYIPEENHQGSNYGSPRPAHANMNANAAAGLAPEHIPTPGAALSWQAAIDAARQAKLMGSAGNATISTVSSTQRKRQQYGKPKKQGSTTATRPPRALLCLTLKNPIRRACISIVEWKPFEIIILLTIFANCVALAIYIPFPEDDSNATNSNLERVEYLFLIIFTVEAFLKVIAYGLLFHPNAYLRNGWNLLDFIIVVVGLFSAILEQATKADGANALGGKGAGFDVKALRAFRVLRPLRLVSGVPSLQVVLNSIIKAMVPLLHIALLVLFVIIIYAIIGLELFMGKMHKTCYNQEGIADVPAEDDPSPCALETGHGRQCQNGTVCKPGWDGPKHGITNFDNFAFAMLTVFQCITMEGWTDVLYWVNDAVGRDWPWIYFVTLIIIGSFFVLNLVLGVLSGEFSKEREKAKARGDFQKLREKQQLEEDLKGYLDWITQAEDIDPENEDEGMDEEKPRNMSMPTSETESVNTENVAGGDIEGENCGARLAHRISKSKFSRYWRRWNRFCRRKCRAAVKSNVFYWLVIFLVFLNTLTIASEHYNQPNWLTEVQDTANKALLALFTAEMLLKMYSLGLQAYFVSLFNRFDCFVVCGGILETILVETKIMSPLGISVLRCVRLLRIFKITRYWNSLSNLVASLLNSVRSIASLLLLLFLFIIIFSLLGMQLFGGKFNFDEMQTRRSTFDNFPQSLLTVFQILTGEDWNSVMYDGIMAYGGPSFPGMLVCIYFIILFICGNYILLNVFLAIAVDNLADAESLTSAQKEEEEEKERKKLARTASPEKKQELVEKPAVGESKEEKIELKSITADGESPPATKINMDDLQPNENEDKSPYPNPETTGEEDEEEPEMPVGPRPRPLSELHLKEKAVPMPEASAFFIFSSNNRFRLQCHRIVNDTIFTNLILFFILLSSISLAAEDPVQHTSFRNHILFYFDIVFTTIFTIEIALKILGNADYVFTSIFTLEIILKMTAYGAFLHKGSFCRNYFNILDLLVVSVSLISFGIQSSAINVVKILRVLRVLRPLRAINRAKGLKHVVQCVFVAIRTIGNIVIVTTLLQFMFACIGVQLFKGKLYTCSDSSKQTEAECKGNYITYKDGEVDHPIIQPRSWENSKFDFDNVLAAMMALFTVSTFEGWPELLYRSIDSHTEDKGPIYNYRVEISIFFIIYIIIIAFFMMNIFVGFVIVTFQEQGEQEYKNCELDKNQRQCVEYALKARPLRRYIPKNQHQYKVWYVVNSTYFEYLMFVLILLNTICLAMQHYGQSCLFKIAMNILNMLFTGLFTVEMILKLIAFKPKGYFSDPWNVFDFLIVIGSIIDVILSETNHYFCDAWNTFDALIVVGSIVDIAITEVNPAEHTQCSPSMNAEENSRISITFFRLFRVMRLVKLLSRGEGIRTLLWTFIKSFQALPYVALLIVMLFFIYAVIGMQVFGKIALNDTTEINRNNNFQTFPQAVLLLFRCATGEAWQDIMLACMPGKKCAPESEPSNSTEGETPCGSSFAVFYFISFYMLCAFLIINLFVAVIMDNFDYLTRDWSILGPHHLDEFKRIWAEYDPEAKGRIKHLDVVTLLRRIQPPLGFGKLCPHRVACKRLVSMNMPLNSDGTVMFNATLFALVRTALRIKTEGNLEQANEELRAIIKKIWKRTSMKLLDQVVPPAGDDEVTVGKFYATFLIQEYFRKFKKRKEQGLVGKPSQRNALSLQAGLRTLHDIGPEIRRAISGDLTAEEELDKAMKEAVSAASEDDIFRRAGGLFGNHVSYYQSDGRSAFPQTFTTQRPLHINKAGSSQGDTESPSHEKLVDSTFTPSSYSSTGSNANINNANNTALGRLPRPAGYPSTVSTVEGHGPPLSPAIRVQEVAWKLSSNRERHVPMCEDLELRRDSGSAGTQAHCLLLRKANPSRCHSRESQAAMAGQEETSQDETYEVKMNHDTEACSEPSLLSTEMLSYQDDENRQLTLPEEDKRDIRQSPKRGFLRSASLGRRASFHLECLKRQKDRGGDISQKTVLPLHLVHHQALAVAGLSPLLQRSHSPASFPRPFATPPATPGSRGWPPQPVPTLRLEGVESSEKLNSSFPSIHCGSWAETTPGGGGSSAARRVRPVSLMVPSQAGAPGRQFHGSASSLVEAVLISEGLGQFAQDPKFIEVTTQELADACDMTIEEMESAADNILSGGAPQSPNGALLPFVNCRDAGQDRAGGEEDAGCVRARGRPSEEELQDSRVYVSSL
Chain of Muscarinic acetylcholine receptor M4 (Homo sapiens) (P08173 whole entry): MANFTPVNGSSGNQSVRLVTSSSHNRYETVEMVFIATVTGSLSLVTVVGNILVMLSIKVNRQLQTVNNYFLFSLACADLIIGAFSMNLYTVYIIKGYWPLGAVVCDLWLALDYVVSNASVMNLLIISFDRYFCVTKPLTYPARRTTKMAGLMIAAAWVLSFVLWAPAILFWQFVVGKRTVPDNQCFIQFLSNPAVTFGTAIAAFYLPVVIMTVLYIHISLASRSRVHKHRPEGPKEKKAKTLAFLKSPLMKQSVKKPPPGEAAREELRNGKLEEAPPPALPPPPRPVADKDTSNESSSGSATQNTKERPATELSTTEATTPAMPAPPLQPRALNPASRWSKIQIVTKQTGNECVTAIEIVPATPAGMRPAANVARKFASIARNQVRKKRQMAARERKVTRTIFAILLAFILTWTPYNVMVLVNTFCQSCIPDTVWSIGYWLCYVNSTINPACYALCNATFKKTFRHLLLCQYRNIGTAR

In the case of COc1cc(P(C)(C)=O)c(OC)cc1CCN.Cl, the logP [1] is reported as -1.67 and the EC50 ([2]; hek293) is reported as “Not Active”.
With COc1cc(CC(C)N)c(OC)cc1I (racemic) the Emax [3] was 103%, the Activity (Mus musculus [4]) was 2812 cm and the Activity (Mus musculus [5]) was “Active”. The Emax [6] was 96%, the inhibition [7] was 72% and the Activity [8] was 82%. The EC50 ([9]; read-out: EC50) was 7 nM, the EC50 ([9]; read-out: pEC50 (converted)) was 7.94 nM and the inhibition [10] was 76%. It also gave an inhibition [11] of 63% and an Activity [12] of 56%.
With COc1cc(OCCC(F)(F)F)c(OC)cc1CCN the Ki ([13]; read-out: Ki) was 477 nM.
For COc1cc(SC(F)(F)F)c(OC)cc1CC(C)N (stereo not given), the Emax [14] was 91% and the EC50 ([2]; read-out: EC50) was 5.4 nM.
Work on COc1cc(CCN)cc(OC)c1SC(F)(F)F yielded an Emax [14] of 96%, an EC50 ([2]; read-out: EC50) of 41 nM and a Ki ([13]; read-out: Ki) of 45 nM.
COc1cc(SCCC(F)(F)F)c(OC)cc1CCN.Cl showed a Ki [15] of 11 nM, an Activity (Mus musculus [16]) of 3.3 and a Ki [17] of 5.5 nM. The Activity (Mus musculus [18]) was 6.1 and the Ki ([13]; read-out: Ki) was 10 nM.
For COc1cc(N(C(C)C)C(C)C)c(OC)cc1CCN.Cl.Cl, the logP [1] was 2.7 and the EC50 ([2]; hek293) was “Not Active”.
For COc1cc(SC(F)(F)F)c(OC)cc1CCN.Cl, the Activity (Mus musculus [16]) was 21, the Stability [19] was “Stable” and the Activity (Mus musculus [18]) was 30. The Stability [20] was “Stable”.
In the case of Cl.[2H]C([2H])(N)Cc1cc(OC)c(SC)cc1OC, the Stability [21] is reported as “Stable” and the Stability [22] is reported as “Stable”.
COc1cc(SCCCF)c(OC)cc1CCN gave a Ki [15] of 6.9 nM, an Activity (Mus musculus [16]) of 7.4 and a Ki [17] of 6.2 nM. The Activity (Mus musculus [18]) was 4.7.
With COc1cc(C2CCCC2)c(OC)cc1CCN the Ki ([13]; read-out: Ki) was 134 nM.
In the case of Cl.[2H]C([2H])([2H])Oc1cc(C2CCCC2)c(OC([2H])([2H])[2H])cc1CCN, the Stability [21] is reported as “Stable” and the Stability [22] is reported as “Stable”.
COc1cc(SSC(C)(C)C)c(OC)cc1CCN.Cl gave a Ki [15] of 26 nM, an Activity (Mus musculus [16]) of 0.6 and a Ki [17] of 10 nM. For the same compound, the Activity (Mus musculus [18]) was 4.8 and the Ki ([13]; read-out: Ki) was 59 nM.
In the case of Cl.[2H]C([2H])([2H])C(c1cc(OC)c(CCN)cc1OC)(C([2H])([2H])[2H])C([2H])([2H])[2H], the Stability [21] is reported as “Stable” and the Stability [22] is reported as “Stable”.
With COc1cc(SC)c(OC)cc1C[C@@H](C)N.Cl the Stability [21] was “Stable” and the Stability [22] was “Stable”.
For COc1cc(C(C)=O)c(OC)cc1CCN.Cl, the logP [1] was 0.42 and the EC50 ([2]; hek293) was “Not Active”.
COc1cc(OCCCF)c(OC)cc1CCN gave a Ki ([13]; read-out: Ki) of 1640 nM and a Ki ([13]; read-out: pKi (converted)) of 1700 nM.
Work on COc1cc(S(=O)(=O)C(F)F)c(OC)cc1CCN.Cl yielded a Ki [15] of 83 nM, an Activity (Mus musculus [16]) of 5 and a Ki [17] of 20 nM. It also gave an Activity (Mus musculus [18]) of 1.7 and a Ki ([13]; read-out: Ki) of 11 nM.
Work on COc1cc([S+]([O-])C(F)(F)F)c(OC)cc1CCN.Cl (stereo not given) yielded a Ki [15] of 21 nM, an Activity (Mus musculus [16]) of 17 and a Ki [17] of 6.5 nM. For the same compound, the Activity (Mus musculus [18]) was 18 and the Ki ([13]; read-out: Ki) was 19 nM.
With COc1cc(SC(C)(C)C)c(OC)cc1CCN the EC50 ([2]; read-out: EC50) was 150 nM and the Activity (Mus musculus [23]) was “inactive”.
In the case of COc1cc(OCCC(F)F)c(OC)cc1CCN, the Ki ([13]; read-out: Ki) is reported as 387 nM.
In the case of COc1cc(SSC(F)(F)F)c(OC)cc1CCN.Cl, the Ki [15] is reported as 67 nM, the Activity (Mus musculus [16]) is reported as 1.8 and the Ki [17] is reported as 66 nM. The Activity (Mus musculus [18]) was 3.4 and the Ki ([13]; read-out: Ki) was 78 nM.
